Measurements as given in US20080119530A1, “Method for treatment and prevention of ultraviolet light induced skin pathologies” (priority 2006, published 2008).
Marks after values point to notes of the source that are not given here.

Test system: skin
Experiment: Affymetrix microarray analysis of gene expression in mouse skin
Format: in vivo
Description: Adult female CD-1 mice were maintained in our animal facility and provided with Purina lab chow (Nestlé Purina PetCare, St. Louis, Mo.) and water ad libitum. The dorsal skin was clipped one day before treatment and shaved with a Remington Microscreen shaver (Wahl, Sterling, II) on the day of treatment. […] UVB TL 40W/12 RS bulbs (Philips, Somerset, N.J.) were used that emitted approximately 30% UV-A, 70% UV-B and <1% UV-C, with a total output of 470 μW/cm^2, as measured with radiometric photodetector probes (Newport, Irvine, Calif.). Skin-fold thickness was measured using calipers to lightly pinch the dorsal skin. All animal procedures were approved by our Institutional Animal Care and Use Committee.
Microarray Analysis. Flash frozen skin was ground to a powder using a mortar and pestle and RNA extracted using a PowerGen 700 tissue homogenizer (Fisher, Hampton, N.H.) in TRIzol reagent (Invitrogen, Carlsbad, Calif.) according to the manufacturer's protocol. Total RNA was further purified using RNeasy Midi Columns according to the manufacturer's protocol (Qiagen, Valencia, Calif.). The quality of the RNA was assessed using an RNA 6000 Pico Assay (Aligent, Palo Alto, Calif.) with a Bioanalyzer (Agilent, Palo Alto, Calif.). Mouse MOE430A gene chips were purchased from Affymetrix (Santa Clara, Calif.). Five micrograms of total RNA from each sample was reverse transcribed using Superscript II (Invitrogen, Carlsbad, Calif.). In vitro transcription to generate biotinylated cRNA was performed using the Bioarray High Yield RNA Transcript Labeling kit (Enzo Diagnostics, Farmingdale, N.Y.). Fifteen micrograms of fragmented cRNA was hybridized for 16 h to mouse MOE430A chips at 45° C. using the Affymetrix 640 hybridization oven, stained, and scanned using the Agilent scanner according to standard Affymetrix protocols. Signal intensities from the Affymetrix “.CEL” files were derived using GeneChip Operating Software v1.2 (Affymetrix, Santa Clara, Calif.), multiplicative model-based expression index (dChip software)^19 and robust multi-array average^20. The data discussed in this publication have been deposited in NCBIs Gene Expression Omnibus (GEO) and are accessible through GEO Series accession number GSE4066. Methods employed to determine significant changes in gene expression from the derived signal intensities were Rank Products (RP)21, Significance Analysis of Microarrays (SAM)^22, Analysis of Variance (ANOVA), Student's t-test, and fold-change. […] Hierarchical clustering of gene expression was performed with dChip software. […] Significant clustering was also found among samples 6 h after UV and among samples 24 h after UV. Furthermore, significant clustering was found among samples treated with DMSO and among those treated with AG825. Scatter plots were generated using GeneChip Operating Software. Self-Organizing Maps were generated using GeneCluster 2.0 software^23. Grouping of genes into biological processes was performed using NetAffx Analysis Center and literature searches. Genes were mapped into biological networks with Pathways Analysis software (Ingenuity Systems, Mountain View, Calif.). Promoter Analysis and Interaction Network Toolset v3.3 (PAINT) was used to scan sequences up to 2000 base pair upstream of genes with altered expression to search for transcription factor binding sequences or transcriptional response elements (TRE) using a 0.95 core similarity threshold^24.
The influence of Erbb2 on gene expression following UV exposure was assessed using microarray analysis. […] Mice were exposed to UV twice because previous results indicated the influence of Erbb receptors on the response of the skin to UV increases with multiple exposures (22). […] In two randomly selected vehicle-treated and sham-irradiated mice, 8 genes out of approximately 13,000 detected (<0.1%) were expressed with more than a 5-fold difference between them. […]

[1] = Adhesion and Migration, 6 h post-UV
[2] = Adhesion and Migration, 24 h post-UV
[3] = Cell Communication, 6 h post-UV
[4] = Cell Communication, 24 h post-UV
[5] = Pigment Biosynthesis, 6 h post-UV
[6] = Pigment Biosynthesis, 24 h post-UV

COc1cc(/C=C(\C#N)C(N)=O)cc(CSc2nc3ccccc3s2)c1O [AG825]
number of genes with altered expression (6 h after UV): 218
share of the altered genes with increased expression (6 h after UV): 61%
number of genes with altered expression (24 h after UV): 127
share of the altered genes with increased expression (24 h after UV): 54%
fold increase in Mmp9 expression (24 h after UV exposure, Affymetrix data): 2 fold
Thbs1 expression vs vehicle-treated mice (24 h post-UV, Affymetrix probe): similar
Total number of genes changed in AG825-treated samples (Adhesion and Migration): 47
percentage of the total number of genes altered by Erbb2 (Adhesion and Migration): (13%)
Number of genes decreased (↓) in AG825-treated samples when compared to the vehicle alone [1]: 13
Number of genes increased (↑) in AG825-treated samples when compared to the vehicle alone [1]: 14
Number of genes decreased (↓) in AG825-treated samples when compared to the vehicle alone [2]: 14
Number of genes increased (↑) in AG825-treated samples when compared to the vehicle alone [2]: 4
Number of genes decreased (↓) in AG825-treated samples when compared to the vehicle alone (Adhesion and Migration, Sham): 0
Number of genes increased (↑) in AG825-treated samples when compared to the vehicle alone (Adhesion and Migration, Sham): 7
Total number of genes changed in AG825-treated samples (Apoptosis): 25
percentage of the total number of genes altered by Erbb2 (Apoptosis): (7%)
Number of genes decreased (↓) in AG825-treated samples when compared to the vehicle alone (Apoptosis, 6 h post-UV): 6
Number of genes increased (↑) in AG825-treated samples when compared to the vehicle alone (Apoptosis, 6 h post-UV): 5
Number of genes decreased (↓) in AG825-treated samples when compared to the vehicle alone (Apoptosis, 24 h post-UV): 4
Number of genes increased (↑) in AG825-treated samples when compared to the vehicle alone (Apoptosis, 24 h post-UV): 6
Number of genes decreased (↓) in AG825-treated samples when compared to the vehicle alone (Apoptosis, Sham): 2
Number of genes increased (↑) in AG825-treated samples when compared to the vehicle alone (Apoptosis, Sham): 2
Total number of genes changed in AG825-treated samples (Cancer): 55
percentage of the total number of genes altered by Erbb2 (Cancer): (15%)
Number of genes decreased (↓) in AG825-treated samples when compared to the vehicle alone (Cancer, 6 h post-UV): 12
Number of genes increased (↑) in AG825-treated samples when compared to the vehicle alone (Cancer, 6 h post-UV): 25
Number of genes decreased (↓) in AG825-treated samples when compared to the vehicle alone (Cancer, 24 h post-UV): 7
Number of genes increased (↑) in AG825-treated samples when compared to the vehicle alone (Cancer, 24 h post-UV): 8
Number of genes decreased (↓) in AG825-treated samples when compared to the vehicle alone (Cancer, Sham): 3
Number of genes increased (↑) in AG825-treated samples when compared to the vehicle alone (Cancer, Sham): 5
Total number of genes changed in AG825-treated samples (Cell Communication): 65
percentage of the total number of genes altered by Erbb2 (Cell Communication): (18%)
Number of genes decreased (↓) in AG825-treated samples when compared to the vehicle alone [3]: 18
Number of genes increased (↑) in AG825-treated samples when compared to the vehicle alone [3]: 18
Number of genes decreased (↓) in AG825-treated samples when compared to the vehicle alone [4]: 20
Number of genes increased (↑) in AG825-treated samples when compared to the vehicle alone [4]: 5
Number of genes decreased (↓) in AG825-treated samples when compared to the vehicle alone (Cell Communication, Sham): 1
Number of genes increased (↑) in AG825-treated samples when compared to the vehicle alone (Cell Communication, Sham): 6
Total number of genes changed in AG825-treated samples (Development): 55
percentage of the total number of genes altered by Erbb2 (Development): (15%)
Number of genes decreased (↓) in AG825-treated samples when compared to the vehicle alone (Development, 6 h post-UV): 8
Number of genes increased (↑) in AG825-treated samples when compared to the vehicle alone (Development, 6 h post-UV): 26
Number of genes decreased (↓) in AG825-treated samples when compared to the vehicle alone (Development, 24 h post-UV): 12
Number of genes increased (↑) in AG825-treated samples when compared to the vehicle alone (Development, 24 h post-UV): 4
Number of genes decreased (↓) in AG825-treated samples when compared to the vehicle alone (Development, Sham): 2
Number of genes increased (↑) in AG825-treated samples when compared to the vehicle alone (Development, Sham): 6
Total number of genes changed in AG825-treated samples (Immune Response): 65
percentage of the total number of genes altered by Erbb2 (Immune Response): (18%)
Number of genes decreased (↓) in AG825-treated samples when compared to the vehicle alone (Immune Response, 6 h post-UV): 42
Number of genes increased (↑) in AG825-treated samples when compared to the vehicle alone (Immune Response, 6 h post-UV): 3
Number of genes decreased (↓) in AG825-treated samples when compared to the vehicle alone (Immune Response, 24 h post-UV): 14
Number of genes increased (↑) in AG825-treated samples when compared to the vehicle alone (Immune Response, 24 h post-UV): 4
Number of genes decreased (↓) in AG825-treated samples when compared to the vehicle alone (Immune Response, Sham): 0
Number of genes increased (↑) in AG825-treated samples when compared to the vehicle alone (Immune Response, Sham): 8
Total number of genes changed in AG825-treated samples (Metabolism): 158
Number of genes decreased (↓) in AG825-treated samples when compared to the vehicle alone (Metabolism, 6 h post-UV): 23
Number of genes increased (↑) in AG825-treated samples when compared to the vehicle alone (Metabolism, 6 h post-UV): 63
Number of genes decreased (↓) in AG825-treated samples when compared to the vehicle alone (Metabolism, 24 h post-UV): 24
Number of genes increased (↑) in AG825-treated samples when compared to the vehicle alone (Metabolism, 24 h post-UV): 43
Number of genes decreased (↓) in AG825-treated samples when compared to the vehicle alone (Metabolism, Sham): 10
Number of genes increased (↑) in AG825-treated samples when compared to the vehicle alone (Metabolism, Sham): 9
Total number of genes changed in AG825-treated samples (Pigment Biosynthesis): 6
percentage of the total number of genes altered by Erbb2 (Pigment Biosynthesis): (2%)
Number of genes decreased (↓) in AG825-treated samples when compared to the vehicle alone [5]: 0
Number of genes increased (↑) in AG825-treated samples when compared to the vehicle alone [5]: 5
Number of genes decreased (↓) in AG825-treated samples when compared to the vehicle alone [6]: 0
Number of genes increased (↑) in AG825-treated samples when compared to the vehicle alone [6]: 1
Number of genes decreased (↓) in AG825-treated samples when compared to the vehicle alone (Pigment Biosynthesis, Sham): 3
Number of genes increased (↑) in AG825-treated samples when compared to the vehicle alone (Pigment Biosynthesis, Sham): 0
Total number of genes changed in AG825-treated samples (Proliferation): 36
percentage of the total number of genes altered by Erbb2 (Proliferation): (10%)^c
Number of genes decreased (↓) in AG825-treated samples when compared to the vehicle alone (Proliferation, 6 h post-UV): 6
Number of genes increased (↑) in AG825-treated samples when compared to the vehicle alone (Proliferation, 6 h post-UV): 21
Number of genes decreased (↓) in AG825-treated samples when compared to the vehicle alone (Proliferation, 24 h post-UV): 3
Number of genes increased (↑) in AG825-treated samples when compared to the vehicle alone (Proliferation, 24 h post-UV): 6
Number of genes decreased (↓) in AG825-treated samples when compared to the vehicle alone (Proliferation, Sham): 3^b
Number of genes increased (↑) in AG825-treated samples when compared to the vehicle alone (Proliferation, Sham): 2
Total number of genes changed in AG825-treated samples (Total Genes): 361
Number of genes decreased (↓) in AG825-treated samples when compared to the vehicle alone (Total Genes, 6 h post-UV): 85
Number of genes increased (↑) in AG825-treated samples when compared to the vehicle alone (Total Genes, 6 h post-UV): 133
Number of genes decreased (↓) in AG825-treated samples when compared to the vehicle alone (Total Genes, 24 h post-UV): 59
Number of genes increased (↑) in AG825-treated samples when compared to the vehicle alone (Total Genes, 24 h post-UV): 68
Number of genes decreased (↓) in AG825-treated samples when compared to the vehicle alone (Total Genes, Sham): 14
Number of genes increased (↑) in AG825-treated samples when compared to the vehicle alone (Total Genes, Sham): 25
expression of cell cycle regulatory genes such as Ccna2, Ccnb1 and Ccnb2 (after UV): lesser responsiveness to UV
share of the altered genes with increased expression (all 361 genes): 61%
expression of proinflammatory chemokines such as Cxcl2 and Cd44 compared to vehicle-treated skin (by 24 h after UV exposure): lower
Il1 b expression: fold greater increase after UV in vehicle-treated compared to AG825-treated samples (microarray): 16 fold
expression of the anti-apoptotic genes Ghr and Ptgs2 (mouse, in vivo): suppressed
fold higher Thbs1 expression compared to corresponding control (sham-irradiated skin, Affymetrix probe): 2 fold
number of genes with altered expression (without UV irradiation): 39
share of the altered genes with increased expression (without UV irradiation): 64%
